One experiment addresses sigma receptor. Briefly: Sigma receptor binding assay ([3H]DTG, guinea pig brain membrane homogenates). As to conditions: displacement of [3H]DTG, guinea pig brain membranes. Here is the method: Sigma Receptor Binding Assay
Briefly, frozen whole guinea-pig brains (Biotrol, Indianapolis, Ind.) were homogenized in 10 volumes (w/v) of ice-cold 320 mM sucrose using a Brinkman polytron. The homogenate was centrifuged at 1,000×g for 20 minutes at 4° C. The supernatant was centrifuged at 20,000×g for 20 minutes at 4° C. The resulting pellet was resuspended in 10 initial volumes of 50 mM Tris/HCl buffer at pH 7.4 and centrifuged at 20,000×g for 20 minutes at 4° C. The resulting pellet was resuspended in 5 initial volumes ice-cold 50 mM Tris/HCl (pH 7.4), and the final volume was adjusted to yield a protein concentration of 3 mg/ml. Aliquots of 20-ml were stored at -70° C. until used, with no detectable loss of binding.
The protein concentration in the 1-ml final incubation volume was 800 μg/ml, corresponding to 32 mg of brain tissue (original wet weight) and to a tissue concentration within the linear range for specific binding. […] Incubations were terminated after 90 minutes at room temperature by addition of 4 ml of ice-cold 50 mM Tris/HCl (pH 7.4) and rapid filtration of the membrane suspension through Whatman GF/B glass-fiber filters under vacuum, using a 48-well cell harvester (Brandel). The filters were washed 2 times with 4 ml of 50 mM Tris/HCl (pH 7.4). […] IC50 values were determined by non-linear regression analysis.
For orientation: Displacement assays read how much labelled ligand stays bound in the presence of the test substance.

Another experiment addresses PCP receptor. As to the kind of experiment: PCP receptor radioligand binding assay ([3H]MK-801, rat brain membranes). As to conditions: read-out: [3H-MK801] IC50; displacement of [3H]MK-801, rat brain membranes.

Where a name gives a salt, the structure may show the parent alone.

As for `CN(C(=N)Nc1cc(Br)ccc1Br)c1cccc(C(F)(F)F)c1` [Compd. No. 71 (Table I), N-(3-Trifluoromethylphenyl)-N-methyl-N'-(2,5-dibromophenyl)guanidine hydrochloride], the concentration for half-maximal inhibition (IC50) (as a rule, the concentration at which inhibition is half-maximal) at sigma receptor is 0.224 µM; on PCP receptor, 0.034 µM.
On the same counts, the results for `CSc1ccc(Cl)c(NC(=N)Nc2cccc3ccccc23)c1` [Compd. No. 46 (Table I), N-(1-Naphthyl)-N'-(2-chloro-5-thiomethylphenyl)guanidine hydrochloride] are 0.0254 µM and 0.043 µM.
For `Cc1ccc(Cl)c(N(C)C(=N)Nc2cccc3ccccc23)c1` [Compd. No. 55 (Table I), N-(1-Naphthyl)-N'-(2-chloro-5-methylphenyl)-N'-methylguanidine hydrochloride], the 50% inhibitory concentration (IC50) on sigma receptor is 2.43 µM; at PCP receptor, 0.041 µM.
Take `CCc1cccc(N(C)C(=N)Nc2cc(Br)ccc2Br)c1` [Compd. No. 11 (Table I), N-(3-ethylphenyl)-N-methyl-N'-(2,5-dibromophenyl)guanidine hydrochloride]: the values for the IC50 on sigma receptor and on PCP receptor were 0.0402 µM and 0.0476 µM, respectively.
On the same counts, the results for `CCc1cccc(N(C)C(=N)Nc2cc(CC)ccc2Cl)c1` [Compd. No. 17 (Table I), N-(3-Ethylphenyl)-N-methyl-N'-(2-chloro-5-ethylphenyl)guanidine hydrochloride] are 0.115 µM and 0.053 µM.
Turning to `N=C(Nc1cc(C(F)(F)F)ccc1F)Nc1cccc2ccccc12` [Compd. No. 39 (Table I), N-(1-Naphthyl)-N'-(2-fluoro-5-trifluoromethylphenyl)guanidine hydrochloride], the IC50 at sigma receptor was 0.0794 µM; on PCP receptor it was 0.0384 µM.
As for `CSc1cccc(N(C)C(=N)Nc2cc(SC)ccc2Cl)c1` [Compd. No. 60 (Table I), N-(3-Methylthiophenyl)-N-methyl-N'-(2-chloro-5-methylthiophenyl)guanidine hydrochloride], the IC50 was 0.48 µM on sigma receptor and 0.00243 µM on PCP receptor.
For the compound `CSc1ccc(Cl)c(NC(=N)N(C)c2cccc3cccnc23)c1` [Compound 79], the 50% inhibitory concentration (IC50) at sigma receptor is 0.542 µM; at PCP receptor, 0.0223 µM.
With `CCc1cccc(NC(=N)Nc2cc(C(F)(F)F)ccc2Br)c1` [Compd. No. 4 (Table I), N-(3-Ethylphenyl)-N'-(2-bromo-5-trifluoromethylphenyl)guanidine hydrochloride], the half-inhibitory concentration (IC50) on sigma receptor is 0.0103 µM; on PCP receptor it was 0.0869 µM.
On the same counts, the results for `CCc1cccc(NC(=N)Nc2cc(CC)ccc2Cl)c1` [Compd. No. 8 (Table I), N-(3-Ethylphenyl)-N'-(2-chloro-5-ethylphenyl)guanidine hydrochloride] are 0.00204 µM and 0.0452 µM.
In the case of `CCc1cccc(N(C)C(=N)Nc2cc(CC)ccc2Br)c1` [Compd. No. 22 (Table I), N-(3-Ethylphenyl)-N-methyl-N'-(2-bromo-5-ethylphenyl)guanidine hydrochloride], the IC50 was determined as 0.203 µM at sigma receptor and 0.0167 µM on PCP receptor.
The like results for `CSc1ccc(Cl)c(NC(=N)N(C)c2cccc(C(F)(F)F)c2)c1` [Compd. No. 66 (Table I), N-(3-Trifluoromethylphenyl)-N-methyl-N'-(2-chloro-5-methylthiophenyl)guanidine hydrochloride] were, in that order, 0.421 µM and 0.00847 µM.
Regarding `CSc1cccc(N(C)C(=N)Nc2cc(Cl)ccc2Cl)c1` [Compd. No. 62 (Table I), N-(3-Methylthiophenyl)-N-methyl-N'-(2,5-dichlorophenyl)guanidine hydrochloride], the IC50 on sigma receptor amounted to 0.13 µM; on PCP receptor it was 0.0593 µM.
As for `CCc1cccc(NC(=N)Nc2cccc3ccccc23)c1` [Compd. No. 45 (Table I)], the IC50 on sigma receptor was 0.0538 µM; at PCP receptor, 0.039 µM.
The like results for `CCc1cccc(N(C)C(=N)N(C)c2cc(Br)ccc2Br)c1` [Compd. No. 27 (Table I), N-(3-Ethylphenyl)-N-methyl-N'-(2,5-dibromophenyl)-N'-methylguanidine hydrochloride] were, in that order, 0.38 µM and 0.0355 µM.
On the same counts, the results for `CCc1cccc(NC(=N)Nc2cc(CC)ccc2F)c1` [Compd. No. 21 (Table I), N-(3-Ethylphenyl)-N'-(2-fluoro-5-ethylphenyl)guanidine hydrochloride] are 0.0074 µM and 0.0648 µM.
On the same counts, the results for `N=C(Nc1cc(Cl)ccc1Cl)Nc1cccc2ccccc12` [Compd. No. 31 (Table I), N-(1-naphthyl)-N'-(2,5-dichlorophenyl)guanidine] are 0.025 µM and 0.041 µM.
On to `Cc1cccc(NC(=N)Nc2cccc3ccccc23)c1` [Compd. No. 38 (Table I)], for which the half-maximal inhibitory concentration (IC50) stood at 0.075 µM at sigma receptor and 0.192 µM at PCP receptor.
As for `N=C(Nc1cc(C(F)(F)F)ccc1Cl)Nc1cccc2ccccc12` [Compd. No. 40 (Table I), N-(1-Naphthyl)-N'-(2-chloro-5-trifluoromethylphenyl)guanidine hydrochloride], the IC50 at sigma receptor is 0.0525 µM; on PCP receptor, 0.0386 µM.
On the same counts, the results for `CCc1ccc(Cl)c(NC(=N)N(C)c2cccc(C(F)(F)F)c2)c1` [Compd. No. 67 (Table I), N-(3-Trifluoromethylphenyl)-N-methyl-N'-(2-chloro-5-ethylphenyl)guanidine hydrochloride] are 0.2 µM and 0.077 µM.
For the compound `CCc1cccc(N(C)C(=N)Nc2cc(C(F)(F)F)ccc2F)c1` [Compd. No. 14 (Table I), N-(3-Ethylphenyl)-N-methyl-N'-(2-fluoro-5-trifluoromethylphenyl)guanidine hydrochloride], the values for the IC50 at sigma receptor and on PCP receptor were 0.085 µM and 0.252 µM, respectively.
Take `Cc1ccc(Cl)c(NC(=N)Nc2cccc3cccnc23)c1` [Compd. No. 48 (Table I), N-(8-Quinolinyl)-N'-(2-chloro-5-methylphenyl)guanidine hydrochloride]: the IC50 at sigma receptor stood at 0.989 µM; on PCP receptor, 0.032 µM.
The like results for `CCc1cccc(N(C)C(=N)Nc2cccc(Br)c2)c1` [Compd. No. 19 (Table I)] were, in that order, 0.04 µM and 0.105 µM.
For `CCc1cccc(NC(=N)Nc2cccc(Cl)c2)c1` [Compd. No. 3 (Table I)], the IC50 on sigma receptor came out at 0.0155 µM; at PCP receptor, 0.146 µM.
With `Cc1ccc(C)c(NC(=N)Nc2cccc3ccccc23)c1` [Compd. No. 33 (Table I), N-(1-Naphthyl)-N'-(2,5-dimethylphenyl)guanidine hydrochloride], the IC50 stood at 0.0274 µM at sigma receptor and 0.0792 µM on PCP receptor.
For `CN(C(=N)Nc1cccc2ccccc12)c1cc(Cl)ccc1Cl` [Compd. No. 50 (Table I), N-(1-Naphthyl)-N'(2,5-dichlorophenyl)-N'-methylguanidine hydrochloride], the IC50 at sigma receptor was 1.32 µM; on PCP receptor, 0.062 µM.
Regarding `CCc1cccc(N(C)C(=N)Nc2cc(SC)ccc2Cl)c1` [Compd. No. 24 (Table I), N-13-Ethylphenyl)-N-methyl-N'-(2-chloro-5-methylthiophenyl)guanidine hydrochloride], the half-inhibitory concentration (IC50) at sigma receptor is 0.309 µM; on PCP receptor, 0.0067 µM.
Turning to `CSc1ccc(C(F)(F)F)cc1NC(=N)Nc1cccc2ccccc12` [Compd. No. 42 (Table I), N-(1-Naphthyl)-N'-(2-thiomethyl-5-trifluoromethylphenyl)guanidine hydrochloride], the results for the IC50 at sigma receptor and on PCP receptor were 0.418 µM and 0.17 µM, respectively.
For `N=C(Nc1cc(C(F)(F)F)ccc1Br)Nc1cccc2ccccc12` [Compd. No. 41 (Table I), N-(1-Naphthyl)-N'-(2-bromo-5-trifluoromethylphenyl)guanidine hydrochloride], the half-maximal inhibitory concentration (IC50) on sigma receptor stood at 0.0496 µM; on PCP receptor, 0.0511 µM.
With `CCc1cccc(N(C)C(=N)Nc2cc(C(F)(F)F)ccc2Cl)c1` [Compd. No. 15 (Table I), N-(3-Ethylphenyl)-N-methyl-N'-(2-chloro-5-trifluoromethylphenyl)guanidine hydrochloride], the half-inhibitory concentration (IC50) on sigma receptor was determined as 0.12 µM; at PCP receptor it was 0.131 µM.
The like results for `CCc1cccc(NC(=N)Nc2cc(SC)ccc2Cl)c1` [Compd. No. 25 (Table I), N-(3-Ethylphenyl)-N'-(2-chloro-5-methylthiophenyl)guanidine hydrochloride] were, in that order, 0.0158 µM and 0.0154 µM.
On the same counts, the results for `CCc1cccc(N(C)C(=N)Nc2cccc(Cl)c2)c1` [Compd. No. 12 (Table I)] are 0.0435 µM and 0.646 µM.
Turning to `CCc1cccc(N(C)C(=N)Nc2cc(CC)ccc2F)c1` [Compd. No. 20 (Table I), N-(3-Ethylphenyl)-N-methyl-N'-(2-fluoro-5-ethylphenyl)guanidine hydrochloride], the IC50 is 0.113 µM at sigma receptor and 0.126 µM at PCP receptor.

These data come from US6153604A, “Therapeutic substituted guanidines” (Cambridge NeuroScience, Inc., priority 1995, dated 2000).
